# From patent US20220088204A1, “ANTICANCER DRUGS AND METHODS OF MAKING AND USING SAME” (YALE UNIVERSITY, priority 2019, published 2022)
# Entries after “also recorded” stand apart in the source; their conditions may differ.
# Key:
# [1] = tested on: PEO1 ovarian cancer cells; assay: pH-dependent cell growth inhibition, transient treatment; assay type: cell-based; conditions: pH 7.4 vs pH 6.2
# Procedure: FIG. 9 depicts pH-dependent cell growth inhibition of PEO1 ovarian cancer cells in culture, treated transiently with various prodrugs of the invention, as described above.
# FIG. 10 depicts pH-dependent cell growth inhibition of PEO1 ovarian cancer cells in culture, treated transiently with an anticancer kinase inhibitor drug, Osimertinib, or a compound of the invention, based on an active core of that drug, YU253673.
# (§1) In order to evaluate pH-dependent activity, treatments are performed at atypical cell culture conditions. […] Several cell lines have been evaluated using this method and for each, cell seeding density and treatment duration is independently experimentally determined. Each experiment is normalized to sham and complete activity controls for each pH condition.
# Similar results have been obtained from pH-dependent cell growth inhibition assays with other classes of Drug using the prodrug approach.
# [2] = Serum stability of prodrug in 20% mouse serum (LCMS, 490 nm); assay type: in vitro ADME; conditions: 37° C.
# Procedure: FIG. 4A depicts liquid chromatography data showing the stability of YU241528 in serum.
# The prodrug strategies of this invention are thought to impart their benefits during the distribution and cell uptake steps of anticancer therapy. In certain embodiments, a prodrug is stable in the blood for a period sufficient to allow for cell uptake and systemic clearance. To test this, 50 μM YU241528 in a solution of PBS, pH 7.4, containing 20% mouse serum was incubated at 37° C. At regular intervals, aliquots were taken and mixed with 2 volumes of ethanol to precipitate serum proteins, then centrifuged. Supernatants were analyzed by LCMS. […] The predominant peak was identified as YU241528 by mass spectrometry.
# [3] = Reductive activation / drug release in 5 mM GSH (simulated cytosol), LCMS; assay type: in vitro ADME; conditions: PBS containing 5 mM GSH, PBS pH 7.4, 5 mM GSH, 37° C., read-out: t1/2 of reduction of the disulfide
# Procedure: In certain embodiments, the prodrug releases the active form of the drug once inside a cancer cell. Once inside the cell, drug release can be triggered by reduction of the disulfide bond in the linker. To evaluate the reductive activation of drug release, 50 μM YU241528 in a solution of PBS, pH 7.4, containing 5 mM GSH (a typical intracellular concentration of the predominant biological reducing agent) was incubated at 37° C. Aliquots were taken at regular intervals and analyzed by LCMS.
# [4] = pKA of the ionizable group; assay type: physicochemical; conditions: read-out: acidic pKA of the carboxyl group
# From the text: The Henderson-Hasselbalch equation allows for calculating the neutral fraction of an ionizable drug at healthy tissue vs. tumor extracellular pH, and thus predicting the associated cell-permeable fractions. […] The carboxyl group of YU241528 has an acidic pKA of ˜4.4, so the predicted membrane permeable fraction is ˜8-fold less at a pH of 7.4 than at 6.5.
# [5] = Blood levels after tail vein injection; assay type: in vivo, adult female balb/c mice
# Procedure: Given that the drug's distribution and clearance can be expected to be substantially complete by about 6 hours after administration, in certain embodiments the peak intracellular dose is achieved long before this process might interfere to a significant degree, even assuming the altered metabolite is indeed compromised in its activity. […] In certain embodiments, the serum stability of YU241528 allows for effective therapy. […] In certain embodiments, the prodrug undergoes a different elimination path, as hepatobiliary elimination of weakly-ionic organic substances is sensitive to charge, size, and lipophilicity.
# [6] = tested on: HeLa cells; assay: pH-dependent cell uptake by flow cytometry; assay type: cell-based; conditions: HeLa cells in suspension, 5 μM, 1 hour, pH 7.4 vs pH 6.5
# From the text: FIGS. 5A-5B depict representative flow cytometry traces of pH-dependent cell treatments. […] Normalized cell counts (Y-axes) are plotted vs. doxorubicin fluorescence intensity per cell (X-axes).
# [7] = Body weight of treated tumor-bearing mice; assay type: in vivo, Balb/c mice; conditions: IV once daily for 5 days, mice with EMT-6 flank tumors
# From the text: FIG. 7 depicts representative in vivo study on the efficacy and toxicity of compounds of the invention. […] Mean tumor volume and mean body weight graphs are shown for groups of 10 tumor-bearing mice.
# [8] = tested on: MDA-MB-231 breast cancer cells; assay: pH-dependent cell growth inhibition, CellTiter-Glo; assay type: cell-based, Human; conditions: 6 hours treatment at pH 7.4 vs pH 6.2, 72 hours growth
# Procedure: Cells treated for 6 hours at pH 7.4 (normal physiological pH, X traces) or pH 6.2 (acidic solid tumor pH, Y traces) were subsequently allowed to grow in normal growth medium for 72 hours, then cell viability was evaluated using the CellTiter-Glo assay kit (Promega). Normalized percent cell growth inhibition is plotted on the left side of each panel and IC50 values reported at each pH from non-linear regression analysis.
# as §1
# Human MDA-MB-231 breast cancer cells seeded at low density on tissue culture treated 384-well plates, allowed to adhere and grow in serum-supplemented growth medium for 24 hours, then treated under pH-controlled conditions for 6 hours, and finally washed and grown in fresh growth media for 72 hours were assessed for cell survival using the CellTiter-Glo assay system (Promega) (FIG. 6).
# [9] = cited from earlier work
compound,measurement,setting,value
C=CC(=O)Nc1cc(Nc2nccc(-c3cn(C)c4ccccc34)n2)c(OC)cc1N(C)CCN(C)C [Osimertinib],pH-dependent bias of cell growth inhibition,[1],slightly lower IC50 value at healthy pH 7.4
COc1cccc2c1C(=O)c1c(O)c3c(c(O)c1C2=O)C[C@@](O)(C(=O)CO)C[C@@H]3O[C@H]1C[C@H](NC(=O)OCCSSCc2ccc(C(=O)O)cc2)[C@H](O)[C@H](C)O1 [YU241528],release of free doxorubicin in serum,"[2]; 50 μM, 20% mouse serum, over 6 hours of incubation",no active doxorubicin is released; also recorded: no free doxorubicin was detected
same,half-life at 50 μM,"[2]; mouse, 20% mouse serum in PBS, pH 7.4, 50 μM, PBS pH 7.4, 20% mouse serum, read-out: t1/2 of interaction with serum",> 6 h
same,half-life at 50 μM,[3],~2.7 min
same,pKa,[4],~4.4
same,level in the blood at 6 hours post injection,[5]; 6 hours,detectable levels
same,level in the blood at 24 hours post injection,[5]; 24 hours,undetectable
same,half-life,"[5]; female, balb/c, mouse, blood, intravenous, read-out: non-compartmental half-life in blood (converted)",~1 h
same,pH preference of cell uptake,[6],preferentially taken up by cells at cancerous pH 6.5 versus cells at normal pH 7.4
COc1cccc2c1C(=O)c1c(O)c3c(c(O)c1C2=O)C[C@@](O)(C(=O)CO)C[C@@H]3O[C@H]1C[C@H](NC(=O)OCCSSCCCCCCCC(=O)O)[C@H](O)[C@H](C)O1 [YU241531],weight loss (mean body weight) compared to sham treated controls,[7],no detectable weight loss
same,pH-dependent bias of cell growth inhibition,[8],greater growth inhibition at acidic tumor pH
COc1cccc2c1C(=O)c1c(O)c3c(c(O)c1C2=O)C[C@@](O)(C(=O)CO)C[C@@H]3O[C@H]1C[C@H](NC(=O)OCCSSCCCc2c(F)c(F)c(O)c(F)c2F)[C@H](O)[C@H](C)O1 [YU244206],weight loss (mean body weight) compared to sham treated controls,[7],no detectable weight loss
same,pH-dependent bias of cell growth inhibition,[8],greater growth inhibition at acidic tumor pH
"COc1cccc2c1C(=O)c1c(O)c3c(c(O)c1C2=O)C[C@@](O)(C(=O)CO)C[C@@H]3O[C@H]1C[C@H](N)[C@H](O)[C@H](C)O1 [doxorubicin, reference compound]",pH-dependent bias of cell growth inhibition,[8],greater growth inhibition at basic healthy pH
same,basic pKA of the amine group,[9],~8
same,pH preference of cell uptake,[6],greater uptake into cells at normal physiologic pH 7.4 than into cells at cancerous pH 6.5
